A short description of this series: Lithium isotope levels in post-mortem neocortex (BA7), quadrupole inductively coupled plasma mass spectroscopy. The text has this: Lithium (Li) isotope levels have been measured in post-mortem neocortex (BA7) of human subjects having bipolar disorder, without having bipolar disorder receiving lithium treatment at time of death. Neurologically intact individuals and subjects with schizophrenia were included as controls.
Bipolar brains show a 4% shift away from 7-Li within the total lithium content. Similar fractionation is not seen in schizophrenia or neurologically intact controls.

Structures are written as SMILES.

Take `[7Li]` [7-Li]: the “shift away from 7-Li within the total lithium content” value (bipolar brains, FIG. 2, deviation from environmental distribution) is 4%. In addition, where the note is “schizophrenia or neurologically intact controls”, the “fractionation (shift away from 7-Li) in brain” value is listed as “not seen”.

As for `[6Li]` [Li-6], the brain penetration result (relative to Li-7, stated as applicants' discovery) was “better able to penetrate the brain”.
